In patent publication US9796704B2, “Substituted quinazolines as receptor-type kinase inhibitors” (Symphony Evolution, Inc., priority 2002, dated 2017):

Columns and labels:
[1] = molecular target: EphA2 (Homo sapiens (Human), UniProt P29317); assay: EphA2 kinase inhibition, luciferase-coupled chemiluminescent assay (LCCA); details: read-out: EphA2 IC50
[2] = molecular target: EphB4 (Homo sapiens (Human), UniProt P54760); assay: EphB4 kinase inhibition, 33P phosphoryl transfer assay (radiometric); format: biochemical
[3] = molecular target: KDR (Homo sapiens (Human), UniProt P35968); assay: KDR kinase inhibition, luciferase-coupled chemiluminescent assay (LCCA); details: read-out: KDR IC50
[4] = molecular target: EGFR (Homo sapiens (Human), UniProt P00533); assay: EGFR kinase inhibition, luciferase-coupled chemiluminescent assay (LCCA); details: read-out: EGFR IC50

Sequence of EphA2 (P29317 598-890): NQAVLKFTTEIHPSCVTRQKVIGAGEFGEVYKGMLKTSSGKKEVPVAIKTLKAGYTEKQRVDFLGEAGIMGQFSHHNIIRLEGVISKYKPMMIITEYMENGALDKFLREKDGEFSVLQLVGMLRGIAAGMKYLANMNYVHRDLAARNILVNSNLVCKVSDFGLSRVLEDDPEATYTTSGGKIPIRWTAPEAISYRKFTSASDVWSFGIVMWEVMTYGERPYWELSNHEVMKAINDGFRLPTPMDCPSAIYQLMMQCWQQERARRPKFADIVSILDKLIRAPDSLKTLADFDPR
Sequence of EphB4 (P54760 605-890): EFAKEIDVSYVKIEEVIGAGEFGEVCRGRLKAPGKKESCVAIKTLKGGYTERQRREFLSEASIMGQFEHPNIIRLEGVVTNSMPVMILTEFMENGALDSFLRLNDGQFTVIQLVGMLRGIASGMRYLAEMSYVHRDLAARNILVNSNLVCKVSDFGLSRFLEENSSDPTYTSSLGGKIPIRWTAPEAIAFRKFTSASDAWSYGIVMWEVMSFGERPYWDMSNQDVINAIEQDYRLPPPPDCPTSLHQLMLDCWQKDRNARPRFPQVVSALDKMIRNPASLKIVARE
Sequence of KDR (P35968 807-1356): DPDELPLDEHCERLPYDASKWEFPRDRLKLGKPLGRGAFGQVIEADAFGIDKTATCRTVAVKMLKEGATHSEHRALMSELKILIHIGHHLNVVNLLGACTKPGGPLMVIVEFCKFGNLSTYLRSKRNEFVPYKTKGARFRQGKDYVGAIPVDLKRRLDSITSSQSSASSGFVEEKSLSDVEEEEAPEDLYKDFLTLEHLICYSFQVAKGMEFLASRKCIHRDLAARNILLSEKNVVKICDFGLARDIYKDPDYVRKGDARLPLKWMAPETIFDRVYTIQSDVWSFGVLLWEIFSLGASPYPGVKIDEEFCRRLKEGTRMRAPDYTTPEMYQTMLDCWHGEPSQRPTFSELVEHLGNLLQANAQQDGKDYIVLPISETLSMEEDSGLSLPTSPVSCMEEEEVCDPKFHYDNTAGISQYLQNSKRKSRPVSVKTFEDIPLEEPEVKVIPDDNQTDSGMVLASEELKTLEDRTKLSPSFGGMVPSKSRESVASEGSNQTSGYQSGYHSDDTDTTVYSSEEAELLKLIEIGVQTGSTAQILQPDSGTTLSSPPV

IC50 [1] [nM]	IC50 [2] [nM]	IC50 [3] [nM]	IC50 [4] [nM]	Molecule
50 to 1000	50 to 1000	< 50	< 50	COc1cc2c(Nc3ccc(Br)c(Cl)c3)ncnc2cc1O[C@H]1CO[C@H]2[C@@H]1OC[C@@H]2OC(F)F [Example 70, 1,4:3,6-dianhydro-2-O-[4-[(4-bromo-3-chlorophenyl)amino]-6-(methyloxy)quinazolin-7-yl]-5-O-(difluoromethyl)-L-iditol]
< 50	< 50	< 50	< 50	COc1cc2c(Nc3ccc(Br)c(Cl)c3)ncnc2cc1O[C@H]1CO[C@@H]2[C@@H](OC)[C@H](OC)O[C@@H]21 [Example 79, methyl 3,6-anhydro-5-O-[4-[(4-bromo-3-chlorophenyl)amino]-6-(methyloxy)quinazolin-7-yl]-2-O-methyl-alpha-L-idofuranoside]
< 50		< 50	< 50	COc1cc2c(Nc3ccc(F)c(C(F)(F)F)c3)ncnc2cc1O[C@@H]1CO[C@@H]2[C@H]1OC[C@H]2F [Example 89, 1,4:3,6-dianhydro-2-deoxy-2-fluoro-5-O-[4-{[4-fluoro-3-(trifluoromethyl)phenyl]amino}-6-(methyloxy)quinazolin-7-yl]-D-iditol]
< 50	< 50	< 50	< 50	COc1cc2c(Nc3cc(F)cc(F)c3)ncnc2cc1O[C@@H]1CO[C@@H]2[C@H]1OC[C@H]2F [Example 94, 1,4:3,6-dianhydro-2-deoxy-5-O-[4-[(3,5-difluorophenyl)amino]-6-(methyloxy)quinazolin-7-yl]-2-fluoro-D-iditol]
< 50	< 50	< 50	< 50	COc1cc2c(Nc3ccc(Br)cc3Cl)ncnc2cc1O[C@@H]1CO[C@@H]2[C@H]1OC[C@H]2F [Example 96, 1,4:3,6-dianhydro-5-O-[4-[(4-bromo-2-chlorophenyl)amino]-6-(methyloxy)quinazolin-7-yl]-2-deoxy-2-fluoro-D-iditol]
	< 50	< 50	< 50	COc1cc2c(Nc3ccc(Cl)c(Cl)c3F)ncnc2cc1O[C@@H]1CO[C@@H]2[C@H]1OC[C@H]2F [Example 97, 1,4:3,6-dianhydro-2-deoxy-5-O-[4-[(3,4-dichloro-2-fluorophenyl)amino]-6-(methyloxy)quinazolin-7-yl]-2-fluoro-D-iditol]
< 50	< 50	< 50	< 50	COc1cc2c(Nc3cc(Cl)c(Br)cc3F)ncnc2cc1O[C@@H]1CO[C@@H]2[C@H]1OC[C@H]2F [Example 98, 1,4:3,6-dianhydro-5-O-[4-[(4-bromo-5-chloro-2-fluorophenyl)amino]-6-(methyloxy)quinazolin-7-yl]-2-deoxy-2-fluoro-D-iditol]
< 50	< 50	< 50	< 50	COc1cc2c(Nc3cc(F)c(F)cc3F)ncnc2cc1O[C@@H]1CO[C@@H]2[C@H]1OC[C@H]2F [Example 99, 1,4:3,6-dianhydro-2-deoxy-2-fluoro-5-O-{6-(methyloxy)-4-[(2,4,5-trifluorophenyl)amino]quinazolin-7-yl}-D-iditol]
	< 50	< 50	< 50	COc1cc2c(Nc3cc(F)c(Br)c(Cl)c3)ncnc2cc1O[C@@H]1CO[C@@H]2[C@H]1OC[C@H]2F [Example 104, 1,4:3,6-dianhydro-5-O-[4-[(4-bromo-3-chloro-5-fluorophenyl)amino]-6-(methyloxy)quinazolin-7-yl]-2-deoxy-2-fluoro-D-iditol]
< 50	< 50	< 50	< 50	COc1cc2c(Nc3ccc(Cl)c(Cl)c3Cl)ncnc2cc1O[C@@H]1CO[C@@H]2[C@H]1OC[C@H]2F [Example 106, 1,4:3,6-dianhydro-2-deoxy-2-fluoro-5-O-{6-(methyloxy)-4-[(2,3,4-trichlorophenyl)amino]quinazolin-7-yl}-D-iditol]
< 50	< 50	< 50	< 50	COc1cc2c(Nc3cc(Cl)c(Cl)c(Cl)c3)ncnc2cc1O[C@@H]1CO[C@@H]2[C@H]1OC[C@H]2F [Example 107, 1,4:3,6-dianhydro-2-deoxy-2-fluoro-5-O-{6-(methyloxy)-4-[(3,4,5-trichlorophenyl)amino]quinazolin-7-yl}-D-iditol]
< 50	< 50	< 50	< 50	COc1cc2c(Nc3ccc(Br)cc3F)ncnc2cc1O[C@@H]1CO[C@@H]2[C@H]1OC[C@H]2F [Example 108, 1,4:3,6-dianhydro-5-O-[4-[(4-bromo-2-fluorophenyl)amino]-6-(methyloxy)quinazolin-7-yl]-2-deoxy-2-fluoro-D-iditol]
< 50	< 50	< 50	< 50	COc1cc2c(Nc3ccc(C(F)(F)F)cc3Br)ncnc2cc1O[C@@H]1CO[C@@H]2[C@H]1OC[C@H]2F [Example 125, 1,4:3,6-dianhydro-5-O-[4-{[2-bromo-4-(trifluoromethyl)phenyl]amino}-6-(methyloxy)quinazolin-7-yl]-2-deoxy-2-fluoro-D-iditol]
	< 50	< 50	< 50	COc1cc2c(Nc3ccc(Cl)c(Cl)c3)ncnc2cc1OCc1noc(CN(C)C)n1 [Example 138, N-(3,4-dichlorophenyl)-7-[({5-[(dimethylamino)methyl]-1,2,4-oxadiazol-3-yl}methyl)oxy]-6-(methyloxy)quinazolin-4-amine]
	< 50	< 50	< 50	COc1cc2c(Nc3ccc(Cl)c(Cl)c3)ncnc2cc1OCC1CN(C(=O)OC(C)(C)C)CCO1 (centres unmarked) [Example 148, 1,1-dimethylethyl 2-({[4-[(3,4-dichlorophenyl)amino]-6-(methyloxy)quinazolin-7-yl]oxy}methyl)morpholine-4-carboxylate]
	< 50	< 50	< 50	COc1cc2c(Nc3ccc(Cl)c(Cl)c3)ncnc2cc1OCC1CN(C)CCCO1 (centres unmarked) [Example 155, N-(3,4-dichlorophenyl)-7-{[(4-methyl-1,4-oxazepan-2-yl)methyl]oxy}-6-(methyloxy)quinazolin-4-amine]
	< 50	< 50	< 50	COc1cc2c(Nc3ccc(Cl)c(Cl)c3)ncnc2cc1OCc1noc(C)c1-c1ccccc1 [Example 161, N-(3,4-dichlorophenyl)-6-(methyloxy)-7-{[(5-methyl-4-phenylisoxazol-3-yl)methyl]oxy}quinazolin-4-amine]
		< 50	< 50	COc1cc2c(Nc3ccc(Cl)c(Cl)c3)ncnc2cc1OCc1noc(-c2cccc(C(F)(F)F)c2)n1 [Example 166, N-(3,4-dichlorophenyl)-6-(methyloxy)-7-[({5-[3-(trifluoromethyl)phenyl]-1,2,4-oxadiazol-3-yl}methyl)oxy]quinazolin-4-amine]
50 to 1000	< 50	< 50	< 50	COc1cc2c(Nc3ccc(Cl)c(Cl)c3)ncnc2cc1OCc1noc(C2CCN(C(=O)OC(C)(C)C)CC2)n1 [Example 197, 1,1-dimethylethyl 4-[3-({[4-[(3,4-dichlorophenyl)amino]-6-(methyloxy)quinazolin-7-yl]oxy}methyl)-1,2,4-oxadiazol-5-yl]piperidine-1-carboxylate]
< 50	< 50	< 50	< 50	COc1cc2c(Nc3ccc(Cl)c(Cl)c3)ncnc2cc1OCc1nc(-c2ccncc2)cs1 [Example 203, N-(3,4-dichlorophenyl)-6-(methyloxy)-7-{[(4-pyridin-4-yl-1,3-thiazol-2-yl)methyl]oxy}quinazolin-4-amine]
< 50	< 50	< 50	< 50	COc1cc2c(Nc3ccc(Cl)c(Cl)c3)ncnc2cc1OCc1nc(CN2CCCN(C)CC2)cs1 [Example 210, N-(3,4-dichlorophenyl)-7-[({4-[(4-methyl-1,4-diazepan-1-yl)methyl]-1,3-thiazol-2-yl}methyl)oxy]-6-(methyloxy)quinazolin-4-amine]
50 to 1000	< 50	< 50	< 50	COc1cc2c(Nc3ccc(Cl)c(Cl)c3)ncnc2cc1OCc1nc(N2CCN(C)CC2)no1 [Example 218, N-(3,4-dichlorophenyl)-6-(methyloxy)-7-({[3-(4-methylpiperazin-1-yl)-1,2,4-oxadiazol-5-yl]methyl}oxy)quinazolin-4-amine]
50 to 1000	50 to 1000	< 50	< 50	COc1cc2c(Nc3ccc(Cl)c(Cl)c3)ncnc2cc1OCc1cc(Br)cc(Br)c1 [Example 232, 7-{[(3,5-dibromophenyl)methyl]oxy}-N-(3,4-dichlorophenyl)-6-(methyloxy)quinazolin-4-amine]

Molecule	IC50 [1] [nM]	IC50 [2] [nM]	IC50 [3] [nM]	IC50 [4] [nM]
COc1cc2c(Nc3ccc(Cl)c(Cl)c3)ncnc2cc1OCc1nc(CN2CCN(C)CC2)no1 [Example 140, N-(3,4-dichlorophenyl)-6-(methyloxy)-7-[({3-[(4-methylpiperazin-1-yl)methyl]-1,2,4-oxadiazol-5-yl}methyl)oxy]quinazolin-4-amine]		< 50	< 50	< 50
N-(3,4-dichlorophenyl)-6-(methyloxy)-7-{[(5-piperidin-2-yl-1,2,4-oxadiazol-3-yl)methyl]oxy}quinazolin-4-amine hydrochloride [Example 31]		< 50	< 50	< 50
